Entries after “also recorded” stand apart in the source; their conditions may differ.
Legend:
LNCaP cells = assay: Cell viability (Cell-Titer GLO), 4 days; assay type: cell-based; conditions: Homo sapiens, 96 h, treated for 4 days, read-out: IC50 (growth inhibition)
Method: (§1) For cell viability, cells were seeded in 96-well plates at 1500-2500 cells per well (optimum density for growth) in a total volume of 100 μl media. Serially diluted compounds in […] of media were added to the cells 12 hours later. After 4 days of incubation, Cell-Titer GLO reagents (Promega) were added and luminescence was measured on GLOMAX microplate luminometer (Promega), according to the manufacturer's instructions. All experimental points were set up as sextuplicate as biological replication and the entire experiments were repeated three times. The data are presented as percentage of viable cells with vehicle treated cells set as 100. The estimated in vitro IC50 values were calculated using GraphPad Prism 6 software.

AR-negative PCa cells = assay: Prostate cancer cell growth and survival, AR-negative cells; assay type: cell-based, human
Method: as §1
For apoptosis, Terminal deoxynucleotidyl transferase-mediated dUTP nick end labeling (TUNEL) was performed by using in situ cell death detection kit (Roche) as previously described^56. The results are expressed as a percentage of apoptotic cell number/total cell number. Caspase-3/7 activity was measured using a luminescent caspase-Glo 3/7 assay kit (Promega Corporation, Madison, USA) following the manufacturer's instructions. For cell growth, cells were seeded in 6-well plates at 2×10^5 per well and treated as indicated. Total viable cell numbers were counted using a Coulter cell counter. For colony formation, 800 cells were seeded in a well of 6-well plates and cultured for 14 days with the medium changed every 3 days. When the cell clone grew visible, the medium was removed and the cells were fixed with […] formalin for 10 minutes. Then the plates were washed with PBS for two times and the cell colonies were stained with 0.2% crystal violet (in 10% formalin) for 15 minutes. The numbers of cell colonies were counted after washed 5 times by PBS. The above assays were performed in triplicates and the entire experiments were repeated three times.

AR and AR-V7 = assay: AR and AR variant expression (immunoblotting, qRT-PCR); assay type: cell-based, human
Method: Total RNA was isolated from cells in 6-well or 10-cm plates or from xenograft tumors, and the cDNA was prepared, amplified and measured in the presence of SYBR as previously^49. Briefly, the fluorescent values were collected and a melting curve analysis was performed. Fold difference was calculated as described previously^49. The experiments were performed at least three times with data presented as mean values±s.d. Cell lysates were analyzed by immunoblotting with antibodies specifically recognizing RORγ, AR, AR-V7 and the indicated proteins. The PCR primers and all the antibodies used in this study are described in the Tables 3 and 4.

[1] = system: C4-2B, VCaP and 22Rv1 xenograft tumors; assay: Xenograft tumor growth, three AR-positive tumor models; assay type: in vivo, mice; conditions: 5 mg/kg, i.p., five times per week; including ENZ-resistant 22Rv1
Method: (§2) Four-week-old male SCID C.B17 mice (for C4-2B and VCaP) or BALB/c nu/nu athymic mice (for 22Rv11 and PC-3) were purchased from Harlan Inc. For establishing tumors, 2×10^6 cells were suspended in total of 100 μL PBS/Matrigel (1:1) and implanted subcutaneously into the dorsal flank on both sides of the mice. Animal group size of six or more was estimated to have a high statistic power, based on power calculation (http://www.biomath.info/power/) and previous studies involving the same xenograft models^34,68. When the tumor volume was approximately 80 mm^3, the mice were randomized and then treated intraperitoneally (i.p.) with 100 μl of either vehicle or RORγ antagonists SR2211, XY011/8k (in a formulation of 15% Cremophor EL, Calbiochem, 82.5% PBS, and 2.5% DMSO) for five times per week. Tumor growth was monitored by calipers with volume calculated using the equation: (π/6 (length×width2)). Body weight during the course of the study was also monitored. At the end of the studies mice were killed and tumors were dissected and weighed. Additionally, prostate, seminal vesicle, testis, kidney, heart, lung, liver, epididymal fat pad and spleen were harvested and weighed. To assess the effect of combining RORγ antagonists and ENZ on the growth of castrated-resistant VCaP xenografts (CRPC-VCaP), first, SCID C.B17 mice were injected with VCaP cells as above to establish the tumors. […]

22Rv1 xenografts = assay: 22Rv1 xenograft tumor growth; assay type: in vivo, mice; conditions: nude mice; SR2211 5 mg/kg i.p., 8k/E11 10 and 20 mg/kg i.p., five times per week (FIG. 3A)
Method: Four-week-old male SCID C.B17 mice (for C4-2B and VCaP) or BALB/c nu/nu athymic mice (for 22Rv11 and PC-3) were purchased from Harlan Inc. For establishing tumors, 2×10^6 cells were suspended in total of 100 μL PBS/Matrigel (1:1) and implanted subcutaneously into the dorsal flank on both sides of the mice. Animal group size of six or more was estimated to have a high statistic power, based on power calculation (http://www.biomath.info/power/) and previous studies involving the same xenograft models^34,68. When the tumor volume was approximately 80 mm^3, the mice were randomized and then treated intraperitoneally (i.p.) with 100 μl of either vehicle or RORγ antagonists SR2211, XY011/8k (in a formulation of 15% Cremophor EL, Calbiochem, 82.5% PBS, and 2.5% DMSO) for five times per week. Tumor growth was monitored by calipers with volume calculated using the equation: (π/6 (length×width2)). Body weight during the course of the study was also monitored. At the end of the studies mice were killed and tumors were dissected and weighed. Additionally, prostate, seminal vesicle, testis, kidney, heart, lung, liver, epididymal fat pad and spleen were harvested and weighed. To assess the effect of combining RORγ antagonists and ENZ on the growth of castrated-resistant VCaP xenografts (CRPC-VCaP), first, SCID C.B17 mice were injected with VCaP cells as above to establish the tumors. Then, mice bearing tumors of approximately 180 mm^3 were surgically castrated. They were then observed for tumor regression. Once tumors grew back to the pre-castration size, mice were randomized and treated with vehicle, 5 mg kg^−1 SR2211, 10 mg […] ENZ or a combination of 5 mg kg^−1 SR2211 and 10 mg kg^−1 ENZ. ENZ was given by oral gavage as previously described^68 and SR2211 was administered i.p as above. Mice were excluded from the study if bearing no tumor or tumor with size twice larger or smaller than the mean, at the time of randomization.

CRPC-VCaP xenografts = assay: Castration-resistant VCaP (CRPC-VCaP) xenograft tumor growth; assay type: in vivo; conditions: castrated mice, SR2211 alone, 5 mg/kg i.p.
Method: as §2

[2] = system: TNBC cells including MDA-MB468, MDA-MB231, BT20, SUM149, and HCC1937; assay: CellTiter-GLO viability, triple-negative breast cancer cells; assay type: cell-based; conditions: Homo sapiens, 96 h, treated for 4 days
Method: as §1
(§3) Using a CellTiter-GLO assay, the viability of cells of different cancer types was measured after treatment with different concentrations of RORγ small molecule inhibitors for 4 days.

breast cancer cells = assay: CellTiter-GLO viability, breast cancer cells; assay type: cell-based, human; conditions: cells having different major molecular features, 4 days
Method: as §1, §3

MCF-7-TamR cell line = assay: Growth of tamoxifen-resistant breast cancer cells; assay type: cell-based, human; conditions: MCF-7 TamR cells, in combination with tamoxifen
Method: as §3

lung cancer cells = assay: CellTiter-GLO viability, lung cancer cells; assay type: cell-based, human; conditions: NSCLC cells: KRAS mutant (A427, Calu1, A549, H23, H358), BRAF mutant (H1666), EGFR mutant (HCC827, PC-9), Erlotinib-resistant (A427, H1975); 4 days
Method: as §1, §3

IC50 (LNCaP cells): 1.5 µM | IC50 [2]: 1 to 10 µM
Structure (SMILES): OC(c1ccc(-c2ccc(CN3CCN(Cc4ccncc4)CC3)cc2)c(F)c1)(C(F)(F)F)C(F)(F)F [SR2211, 2-Fluoro-4′-[[4-(4-pyridinylmethyl)-1-piperazinyl]methyl]-a,a-bis (trifluoromethyl)-[1,1′-biphenyl]-4-methanol]
inhibition of cell growth and survival in AR-negative cells (AR-negative PCa cells): not in the AR-negative cells | expression of AR and AR-V7 (AR and AR-V7; C4-2B and VCaP cells, 72 h): potently inhibited the expression of AR and AR-V7 in a dose-dependent manner | AR expression (AR and AR-V7; C4-2B cells, 5 μM, 24 hours): significant but incomplete suppression of AR expression | AR (full-length and spliced variants such as ARV7) mRNA and protein expression (AR and AR-V7; qRT-PCR and Western blotting, PCa cells): strongly inhibited the expression of AR | tumor growth [1]: effectively stopped the tumor growth | growth of xenograft tumors (22Rv1 xenografts): strongly inhibited growth of xenograft tumors | CRPC tumor growth (CRPC-VCaP xenografts): very potent in inhibition of the CRPC tumor growth | growth and survival of breast cancer cells (breast cancer cells): strongly inhibited the growth and survival of breast cancer cells | sensitization of tamoxifen-resistant breast cancer cells to tamoxifen (MCF-7-TamR cell line): able to sensitize tamoxifen-resistant breast cancer cells to tamoxifen; also recorded: sensitized MCF-7 TamR cells to tamoxifen | growth and survival of lung cancer cells (lung cancer cells): strongly inhibited the growth and survival of lung cancer cells

— patent US10959984B2, “Methods for treating cancer with RORγ inhibitors” (THE REGENTS OF THE UNIVERSITY OF CALIFORNIA, priority 2015, dated 2021)
